One data set relates to NCI 60 cell line panel. The settings on record: cited from earlier work; for Mean TGI cytostatic / GI50: mean over NCI DTP 60 cell lines; for GI50: read-out: Mean GI50 inhibition.
In the next data set the test system is HT29 (ER Negative). Description: Cytotoxicity, 2 hour exposure, cells not expressing the estrogen receptor. In kind it is cell-based. The settings on record: Homo sapiens, HT-29, N=3, mean ± SD. An excerpt:
(§1) MCF7 over express estrogen alpha-receptors.
(§2) MCF7 cells over express estrogen alpha-receptors.
(§3) The foregoing description of embodiments of the methods, systems, and components of the present invention has been provided for the purposes of illustration and description. It is not intended to be exhaustive or to limit the invention to the precise forms disclosed. Many modifications and variations will be apparent to one of ordinary skill in the relevant arts. For example, steps performed in the embodiments of the invention disclosed can be performed in alternate orders, certain steps can be omitted, and additional steps can be added. The embodiments were chosen and described in order to best explain the principles of the invention and its practical application, thereby enabling others skilled in the art to understand the invention for various embodiments and with various modifications that are suited to the particular used contemplated. Other embodiments are possible and are covered by the invention. Such embodiments will be apparent to persons skilled in the relevant art(s) based on the teachings contained herein. The breadth and scope of the present invention should not be limited by any of the above-described exemplary embodiments, but should be defined only in accordance with the following claims and their equivalents.

The subject of another data set is MCF7 (ER positive). As to the kind of experiment: Cytotoxicity, 2 hour exposure, cells expressing the estrogen receptor. In kind it is cell-based. The settings on record: Homo sapiens, N=3, mean ± SD.
Description: as §1, §2, §3

The subject of data set [1] is Prostate PC3 (negative PSA). As to the kind of experiment: Activity of PSA cleavable analogs against PSA negative cell line, 48 hour exposure. In kind it is cell-based. The settings on record: N=3, mean ± SD.
In data set [2] the test system is Prostate DuPro (trace PSA). As to the kind of experiment: Activity of PSA cleavable analogs against trace PSA cell line, 48 hour exposure. The settings on record: Homo sapiens, N=3, mean ± SD. In kind it is cell-based.
Data set [3] relates to Prostate LnCAP (positive PSA). Description: Activity of PSA cleavable analogs against PSA positive cell line, 48 hour exposure. In kind it is cell-based. Particulars: Homo sapiens, N=3, mean ± SD.
Data set [4] relates to Prostate PC3 (negative PSA). As to the kind of experiment: Activity of PSA cleavable analogs against PSA negative cell line, 48 hour exposure. In kind it is cell-based. Particulars: N=3, mean ± SD. The source holds these as a separate data set.
Data set [5] deals with Prostate DuPro (trace PSA). As to the kind of experiment: Activity of PSA cleavable analogs against trace PSA cell line, 48 hour exposure. Particulars: N=3, mean ± SD. In kind it is cell-based.
Data set [6] deals with Prostate LnCAP (positive PSA). Description: Activity of PSA cleavable analogs against PSA positive cell line, 48 hour exposure. In kind it is cell-based. Particulars: N=3, mean ± SD.
Data set [7] has as its system MV522 cell line. Description: cells. In kind it is cell-based. The settings on record: read-out: Mean IC50 value (nM) ± SD, N=3 unless otherwise indicated; MV522 Target Cell Line; 2 hr exposure; MV522 target cell line, 2 hr exposure; mean ± SD, N=3 unless otherwise indicated.
In data set [8] the test system is MV522 cell line. As to the kind of experiment: 48 hour exposure, growth or viability by Trypan Blue Exclusion assay, target cell line. In kind it is cell-based. The settings on record: read-out: Mean IC50 value (nM) ± SD, N=3 unless otherwise indicated.
Data set [9] has as its system 8392B cell line. Description: cells. In kind it is cell-based. The settings on record: read-out: Mean IC50 value (nM) ± SD, N=3 unless otherwise indicated, 8392B Nontarget Cell Line, 48 hr exposure, 8392B nontarget cell line, mean ± SD, N=3 unless otherwise indicated.
Data set [10] has as its system 8392B cell line. As to the kind of experiment: Two hour toxicity: inhibition of DNA synthesis activity, nontarget cell line. In kind it is cell-based. The settings on record: read-out: Mean IC50 value (nM) ± SD, N=3 unless otherwise indicated; 8392B Nontarget Cell Line; 2 hr exposure; 8392B nontarget cell line, 2 hr exposure; mean ± SD, N=3 unless otherwise indicated.

*1 amine or outer side, *2 acyl side, *3 side chain or, on linkers, in order; H or OH if unused. Where a SMILES comes first, the peptide text is derived from it. The star is where a group is joined. X2 = CC1=C(CCCN*)C2=C(C)C3(CC3)[C@@](C)(O)C(=O)C2=C1; Morpholide = C1CN(*)CCO1; CO = O=C([*:1])[*:2]

As for `CC1=C2C(=CC(C)(C)[C@@H]2O)C(=O)[C@](C)(O)C12CC2` [Illudin M], in the data set with NCI 60 cell line panel (human, nci 60 cell lines), the CC50 – broadly, the concentration that lowers cell viability or growth by half – is 291 nM. Moreover, the “Mean TGI cytostatic” value in the data set with NCI 60 cell line panel is 20 nM. Also, in the data set with NCI 60 cell line panel, the GI50 (as a rule, the concentration giving 50% growth inhibition) was 3 nM. Moreover, the results for the IC50 with HT29 (ER Negative) and in the data set on MCF7 (ER positive) were 520 ± 100 nM and 480 ± 130 nM, respectively.

With `CC1=C2C(=C[C@@](C)(CO)[C@@H]2O)C(=O)[C@](C)(O)C12CC2` [Illudin S], in the data set with NCI 60 cell line panel, the “Mean TGI cytostatic” value is reported as 64 nM. The 50% growth inhibitory concentration (GI50) in the data set on NCI 60 cell line panel was 10 nM. For the same compound, the IC50 (usually the concentration that inhibits the measured activity by half) is 16 ± 5 nM in data set [1], 11 ± 3 nM in data set [2] and 15 ± 3 nM in data set [3].

Turning to `CC(=O)N1C[C@H](O)C[C@H]1C(=O)N[C@@H](CO)C(=O)N[C@@H](CO)C(=O)N[C@H](C(=O)N[C@@H](CCC(N)=O)C(=O)N[C@@H](CO)C(=O)N[C@@H](CO)C(=O)N1CCC[C@H]1C(=O)O[C@@H]1C2=C(C)C3(CC3)[C@@](C)(O)C(=O)C2=CC1(C)C)C1CCCCC1` [compound 216], the 50% inhibitory concentration (IC50) in [4] is 190 ± 10 nM; in [5] it was 0.28 ± 0.06 µM; in [6], 190 ± 30 nM.

Consider `CC1=C(CCCNC(=O)[C@H](CC(C)C)NC(=O)[C@H](CCC(N)=O)NC(=O)[C@H](CC(C)C)NC(=O)[C@H](CCCCN)NC(=O)[C@H](CO)NC(=O)[C@H](CO)NC(=O)[C@H](Cc2c[nH]cn2)NC(=O)N2CCOCC2)C2=C(C)C3(CC3)[C@@](C)(O)C(=O)C2=C1` [compound 221] ({Morpholide-CO}-HSSKLQL-X2), for which the IC50 in the data set on MV522 cell line [7] is over 21000 nM; in data set [4] it was over 21000 nM; in the data set on MV522 cell line [8], 2500 nM; in data set [5] it was 13 µM; in data set [6], 800 ± 100 nM; in the data set with 8392B cell line [9] it was over 21000 nM. The IC50 in the data set on 8392B cell line [10] was over 21000 nM.

Source of the values: patent publication EP4035684A1, “AFFINITY ILLUDOFULVENE CONJUGATES” (AF Chemical LLC, priority 2019, dated 2022).
